Measured values as given in article PMC3375340 (Journal of Medicinal Chemistry, 2012).
Converted amounts (≈) assume the structure as drawn.

Columns and labels:
[1] = tested on: M. tuberculosis H37Rv INHr; assay: microbe, parasite or virus in culture; format: cell-based; settings: Mycobacterium tuberculosis
[2] = tested on: M. tuberculosis H37Rv RFPr; assay: microbe, parasite or virus in culture; format: cell-based; settings: Mycobacterium tuberculosis

Q: For `CCCCCC[C@H](CN1CCC(COc2cccc(C(=NOC)c3ccc(Cl)cc3)c2)CC1)OC(N)=O` [(R)-13, (R)-1-(4-((3-((4-Chlorophenyl)(methoxyimino)methyl)phenoxy)methyl)piperidin-1-yl)octan-2-yl carbamate], which MIC [1] is on record?
A: 1.52 mg/L (≈ 2.87 µM)

Q: And the MIC [2]?
A: 1.51 mg/L (≈ 2.85 µM)
